The subject of assay [1] is Candida albicans. Nature of the assay: Antifungal activity against Candida albicans ATCC 90028 after 48 hrs by broth microdilution method. The assay is classed as functional. To be noted: ATCC 90028, 48 h.
The nature of assay [2]: Antifungal activity against Cladosporium cladosporioides ATCC 16022 after 48 hrs by broth microdilution method. The assay is classed as functional.
Assay [3] can be described thus: Antifungal activity against Rhodotorula mucilaginosa ATCC 66034 after 48 hrs by broth microdilution method. The format is functional.
The test system of assay [4] is Staphylococcus aureus. In words: Growth inhibition of Staphylococcus aureus ATCC 25923 at 50 uM after 24 hrs by broth microdilution method. To be noted: ATCC 25923, 24 h, read-out: GI. The format is functional. For orientation: Broth dilution looks for growth in wells or tubes with falling amounts of substance.
In assay [5] the test system is Escherichia coli. In words: Growth inhibition of Escherichia coli ATCC 25922 at 50 uM after 24 hrs by broth microdilution method. The format is functional. To be noted: ATCC 25922, 24 h, read-out: GI.
Assay [6] concerns Candida albicans. Nature of the assay: Growth inhibition of Candida albicans ATCC 90028 at 50 uM after 48 hrs by broth microdilution method. The format is functional. To be noted: ATCC 90028, 48 h, read-out: GI.
For assay [7], the system named is Staphylococcus aureus. In words: Antibacterial activity against Staphylococcus aureus ATCC 25923 after 24 hrs by broth microdilution method. To be noted: ATCC 25923, 24 h. The assay is classed as functional.
Assay [8] has as its system Staphylococcus aureus. In words: Antibacterial activity against methicillin-resistant Staphylococcus aureus ATCC 4330 after 24 hrs by broth microdilution method. To be noted: ATCC 4330, 24 h. The assay is classed as functional.
The subject of another assay is Cutibacterium acnes. In words: Antibacterial activity against Propionibacterium acnes ATCC 6919 after 24 hrs by broth microdilution method. The format is functional. To be noted: ATCC 6919, 24 h.
Another assay relates to Salmonella typhimurium. Nature of the assay: Antibacterial activity against Salmonella typhimurium ATCC 13311 after 24 hrs by broth microdilution method. To be noted: Salmonella enterica, ATCC 13311, 24 h. The assay is classed as functional, Salmonella enterica subsp. enterica serovar Typhimurium.
For assay [9], the system named is Staphylococcus epidermidis. In words: Antibacterial activity against Staphylococcus epidermidis ATCC 12228 after 24 hrs by broth microdilution method. The format is functional. To be noted: ATCC 12228, 24 h.
For another assay, the system named is Streptococcus mitis. In words: Antibacterial activity against Streptococcus mitis NCIMB 13770 after 24 hrs by broth microdilution method. The assay is classed as functional. To be noted: NCIMB 13770, 24 h.
Assay [10] relates to Escherichia coli. In words: Antibacterial activity against Escherichia coli ATCC 25922 after 24 hrs by broth microdilution method. The format is functional.
Assay [11] relates to Staphylococcus aureus. In words: Ratio of MIC90 for Staphylococcus aureus ATCC 25923 to MIC90 for methicillin-resistant Staphylococcus aureus ATCC 4330. The format is functional.

We go through 19 compounds from ChEMBL document CHEMBL3868600, “Antibacterial profiling of abietane-type diterpenoids” (Bioorg Med Chem, 2017).

Converted amounts (≈) assume the structure as drawn. Bounds are passed on as bounds.

What is called MIC90 is the lowest concentration that inhibits either 90% of growth or 90% of the strains tested, depending on the study. Lower therefore signals greater potency. On to `C[C@@H]1[C@H](O)[C@@H](C)/C=C/C=C/C=C/C=C/C=C/C=C/C=C/[C@H](O[C@@H]2O[C@H](C)[C@@H](O)[C@H](N)[C@@H]2O)C[C@@H]2O[C@](O)(C[C@@H](O)C[C@@H](O)[C@H](O)CC[C@@H](O)C[C@@H](O)CC(=O)O[C@H]1C)C[C@H](O)[C@H]2C(=O)O` [AMPHOTERICIN B], for which the MIC90 against Candida albicans [1] came to 16 µg/mL (≈ 17.3 µM).
Take `OC(Cn1cncn1)(Cn1cncn1)c1ccc(F)cc1F`: the figures for the MIC90 in assay [2] and in [3] were 520 µg/mL (≈ 1700 µM) and 0.5 µg/mL (≈ 1.63 µM), respectively.
Turning to `COC(=O)CNC(=O)[C@]1(C)CCC[C@@]2(C)[C@H]1CC=C1C=C(C(C)C)CC[C@@H]12`, the inhibition of growth at 50 µM in the assay with Staphylococcus aureus [4] was 13%; with Escherichia coli [5], 8%; with Candida albicans [6], 20%.
In the case of `CC(C)C1=CC2=CC[C@@H]3[C@](C)(CCC[C@@]3(C)C(=O)O)[C@H]2CC1` [ABIETIC ACID], the inhibition of growth at 50 µM in the assay with Staphylococcus aureus [4] is 44 to 45%; with Escherichia coli [5], 0%; in the assay on Candida albicans [6] it was -53%. Further, the MIC90 in the assay with Staphylococcus aureus [7] was 63 µg/mL (≈ 208 µM); in assay [2], 63 µg/mL (≈ 208 µM); against Staphylococcus aureus [8], 31 µg/mL (≈ 102 µM); against Cutibacterium acnes it was 4 µg/mL (≈ 13.2 µM); in the assay with Salmonella typhimurium, 31 µg/mL (≈ 102 µM); in [9] it was 8 µg/mL (≈ 26.4 µM). The figures for the MIC90 (against Streptococcus mitis; in assay [3]) were 16 µg/mL (≈ 52.9 µM) and 31 µg/mL (≈ 102 µM), respectively.
In turn, GENTAMICIN came in with an MIC90 in the assay with Escherichia coli [10] of 2 µg/mL.
In the case of `COC(=O)[C@H](CC(C)C)NC(=O)[C@]1(C)CCC[C@@]2(C)[C@H]1CC=C1C=C(C(C)C)CC[C@@H]12`, the figures for the inhibition of growth at 50 µM in the assay with Staphylococcus aureus [4], in the assay on Escherichia coli [5] and in the assay with Candida albicans [6] were -9%, 6% and -8%, respectively.
Take `CC1(C)S[C@@H]2[C@H](NC(=O)[C@H](N)c3ccccc3)C(=O)N2[C@H]1C(=O)O` [AMPICILLIN]: the MIC90 in the assay with Cutibacterium acnes worked out at 0.125 µg/mL (≈ 0.358 µM); in the assay with Salmonella typhimurium it was 0.5 µg/mL (≈ 1.43 µM); in [9], 2 µg/mL (≈ 5.72 µM); against Streptococcus mitis it was 2 µg/mL (≈ 5.72 µM).
As usually defined, the IC50 is the concentration that inhibits the measured activity by half. A higher IC50 goes with weaker potency. In turn, `COC(=O)[C@@H](CO)NC(=O)[C@]1(C)CCC[C@]2(C)c3ccc(C(C)C)cc3CC[C@@H]12` returned an IC50 with Staphylococcus aureus [7] of 21 to 30 µg/mL (≈ 52.3 to 74.7 µM). For the same compound, the MIC90 with Staphylococcus aureus [7] was 60 µg/mL (≈ 149 µM); in assay [2] it was over 125 µg/mL; in the assay with Staphylococcus aureus [8] it was 8 µg/mL (≈ 19.9 µM); with Cutibacterium acnes, 16 µg/mL (≈ 39.8 µM); against Salmonella typhimurium it was 31 µg/mL (≈ 77.2 µM); in [9] it was 8 µg/mL (≈ 19.9 µM). In addition, the figures for the MIC90 (against Streptococcus mitis; in assay [3]) were 8 µg/mL (≈ 19.9 µM) and 31 µg/mL (≈ 77.2 µM), respectively. In addition, the Ratio in the assay with Staphylococcus aureus [11] was 7.5.
Regarding `O=C(O)c1cn(C2CC2)c2cc(N3CCNCC3)c(F)cc2c1=O` [CIPROFLOXACIN], in the assay with Staphylococcus aureus [7], the MIC90 worked out at 1 µg/mL (≈ 3.02 µM).
In the case of `CC[C@H]1OC(=O)[C@H](C)[C@@H](O[C@H]2C[C@@](C)(OC)[C@@H](O)[C@H](C)O2)[C@H](C)[C@@H](O[C@@H]2O[C@H](C)C[C@H](N(C)C)[C@H]2O)[C@](C)(OC)C[C@@H](C)C(=O)[C@H](C)[C@@H](O)[C@]1(C)O` [CLARITHROMYCIN], the MIC90 against Cutibacterium acnes stood at 0.5 µg/mL (≈ 0.668 µM); against Streptococcus mitis, 0.25 µg/mL (≈ 0.334 µM).
As to `COC(=O)[C@H](CO)NC(=O)[C@]1(C)CCC[C@]2(C)c3ccc(C(C)C)cc3CC[C@@H]12`, in the assay with Staphylococcus aureus [7], the IC50 lay within 21 to 30 µg/mL (≈ 52.3 to 74.7 µM) and the MIC90 is over 125 µg/mL.
With `CC[C@H](NC(=O)[C@]1(C)CCC[C@@]2(C)[C@H]1CC=C1C=C(C(C)C)CC[C@@H]12)C(=O)OC`, the values for the inhibition of growth at 50 µM in the assay on Staphylococcus aureus [4], in the assay with Escherichia coli [5] and in the assay with Candida albicans [6] were -12%, 11% and 23%, respectively.
The matching figures for `COC(=O)[C@H](Cc1ccccc1)NC(=O)[C@]1(C)CCC[C@@]2(C)[C@H]1CC=C1C=C(C(C)C)CC[C@@H]12`: -1%, 6% and -13%.
As for `O=C(N[C@H](CO)[C@H](O)c1ccc([N+](=O)[O-])cc1)C(Cl)Cl` [CHLORAMPHENICOL], the MIC90 worked out at 4 µg/mL (≈ 12.4 µM) against Cutibacterium acnes, 8 µg/mL (≈ 24.8 µM) with Salmonella typhimurium, 8 µg/mL (≈ 24.8 µM) in assay [9] and 4 µg/mL (≈ 12.4 µM) in the assay with Streptococcus mitis.
For NYSTATIN, the figures for the MIC90 in assay [2] and in assay [3] were 64 µg/mL and 0.125 µg/mL, respectively.
Regarding `COC(=O)[C@H](CC1CCCCC1)NC(=O)[C@]1(C)CCC[C@@]2(C)[C@H]1CC=C1C=C(C(C)C)CC[C@@H]12`, the inhibition of growth at 50 µM with Staphylococcus aureus [4] is -8%; in the assay with Escherichia coli [5] it was 3%; in the assay with Candida albicans [6], -35%.
Turning to `CN(C)[C@@H]1C(O)=C(C(N)=O)C(=O)[C@@]2(O)C(O)=C3C(=O)c4c(O)cccc4[C@@](C)(O)[C@H]3C[C@@H]12` [TETRACYCLINE], the MIC90 against Cutibacterium acnes came to 2 µg/mL (≈ 4.5 µM); in the assay with Salmonella typhimurium it was 16 µg/mL (≈ 36 µM); in assay [9], 1 µg/mL (≈ 2.25 µM); in the assay on Streptococcus mitis, 1 µg/mL (≈ 2.25 µM).
With `COC(=O)[C@@H](NC(=O)[C@]1(C)CCC[C@@]2(C)[C@H]1CC=C1C=C(C(C)C)CC[C@@H]12)C(C)C`, the values for the inhibition of growth at 50 µM in the assay on Staphylococcus aureus [4], with Escherichia coli [5] and in the assay with Candida albicans [6] were 6%, 6% and 0%, respectively.
On to `COC(=O)[C@H](CO)NC(=O)[C@]1(C)CCC[C@@]2(C)[C@H]1CC=C1C=C(C(C)C)CC[C@@H]12`, for which the figures for the inhibition of growth at 50 µM in the assay with Staphylococcus aureus [4], in the assay on Escherichia coli [5] and with Candida albicans [6] were 76%, 9% and 39%, respectively. In the assay with Staphylococcus aureus [7], this compound displayed an IC50 of 21 to 30 µg/mL (≈ 52 to 74.3 µM). The MIC90 is 61 µg/mL (≈ 151 µM) with Staphylococcus aureus [7]; over 125 µg/mL in assay [2]; 62 µg/mL (≈ 154 µM) in the assay with Staphylococcus aureus [8]; over 125 µg/mL against Cutibacterium acnes; over 125 µg/mL in the assay on Salmonella typhimurium; 16 µg/mL (≈ 39.6 µM) in assay [9]. The MIC90 in the assay on Streptococcus mitis was over 125 µg/mL; in assay [3], 31 µg/mL (≈ 76.8 µM).
